# Source: US20040176370A1, “3,4-Dihdro-N-[[1-(3-hydroxybutyl)-4-piperidinyl]methyl]-2H-[1,3]oxazino[3,2-a]indole-10-carboxamide as 5-HT(4) receptor antagonist” (SmithKline Beecham p.l.c., priority 1998, published 2004)
# Key:
# 5-HT4 receptor = biological target: T1, 5-HT4 receptor (Cavia porcellus, UniProt O70528); test: 5-HT4 receptor antagonist activity: 5-HT-evoked contractions of guinea-pig distal colon LMMP preparations; format: cell-based; details: antagonism of 5-HT dose response curve, 45 minutes incubation
# T1 construct: Longitudinal muscle-myenteric plexus (LMMP) preparations, 2-3 cm long, are obtained from the distal colon region; from tissue; host or cells: guinea-pig distal colon longitudinal muscle-myenteric plexus (LMMP)
# Experimental: 5-HT4 RECEPTOR ANTAGONIST ACTIVITY
# Male Dunkin Hartley guinea-pigs, weighing 200-300 g are used. Longitudinal muscle-myenteric plexus (LMMP) preparations, 2-3 cm long, are obtained from the distal colon region. These are suspended under a 0.5 g load in isolated tissue baths containing Krebs Henseleit solution (NaCl 118 mM, KCl 4.7 mM KH2PO4 1.2 mM MgSO4 7H2O 1.2 mM, Glucose 11.1 mM, NaHCO3 25 mM, CaCl2 6H2O 2.5 mM) bubbled with 5% CO2 in O2, maintained at 37° C. and containing 1 uM Granisetron and 0.1 uM Methiothepin to block 5HT3 and 5HT1-like receptors respectively. 100 uM Pargyline is also added to the tissues at the start of the experiment. Tissues are left for 15 minutes to equilibrate and then exposed to 5-HT at 0.1 uM every 15 minutes until a uniform response is achieved. Following a half hour period for tissues to stabilise, non-cumulative dose response curves to 5-HT are constructed in all tissues. When base-lines have returned to normal, test compounds are added in the reservoirs of the tissue set-ups and washed in to the tissues. Tissues are incubated with the antagonists for 45 minutes after which a second non-cumulative dose response curve to 5-HT is constructed. […]
# [1] = test system: DMPP-evoked contractions (nicotinic receptor agonist); test: Selectivity test: cholinergically-mediated contractions of guinea-pig colon evoked by the nicotinic receptor agonist DMPP; format: cell-based; details: guinea-pig colon LMMP, dose response curve to DMPP
# Experimental: To test for selectivity of action, compounds are tested for their ability to antagonise cholinergically-mediated contractions of the guinea-pic colon, evoked by the nicotinic receptor agonist, DMPP (1,1-dimethyl-4-phenyl-piperazinium iodide). For these experiments, tissues and equipment are set up as for the above, 5HT4 receptor experiments. After sensitization, non-cumulative dose response curves are constructed to DMPP. Test compounds are incubated with the tissues as above, and a second dose response curve to DMPP created. Results are given as mean pKB±SEM values for each antagonists.
# T1 sequence (O70528 whole entry): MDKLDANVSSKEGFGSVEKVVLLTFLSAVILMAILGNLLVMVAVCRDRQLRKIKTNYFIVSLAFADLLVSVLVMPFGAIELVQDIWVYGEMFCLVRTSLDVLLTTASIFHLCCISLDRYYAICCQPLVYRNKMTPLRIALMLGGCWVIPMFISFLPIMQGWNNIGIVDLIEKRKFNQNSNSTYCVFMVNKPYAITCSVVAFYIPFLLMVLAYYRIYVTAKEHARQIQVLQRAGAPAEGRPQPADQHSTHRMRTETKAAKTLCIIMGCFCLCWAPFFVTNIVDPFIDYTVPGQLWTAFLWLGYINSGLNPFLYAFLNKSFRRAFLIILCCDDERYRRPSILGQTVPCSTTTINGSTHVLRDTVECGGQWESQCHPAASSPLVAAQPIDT
structure (smiles),measurement,setting,value
"CC(O)CCN1CCC(CNC(=O)c2c3n(c4ccccc24)CCCO3)CC1 (racemic) [compound of formula (I), 3,4dihydro-N-[[1-(3-hydroxybutyl)-4-piperidinyl]methyl]-2H-[1,3]oxazino[3,2-α]indole-10-carboxamide]",Kb,5-HT4 receptor,501 pM
same,effect on DMPP-evoked contractions,[1],did not significantly affect
